Source: ChEMBL document CHEMBL4229568, “Discovery of natural flavonoids as activators of Nrf2-mediated defense system: Structure-activity relationship and inhibition of intracellular oxidative insults” (Bioorg Med Chem, 2018)
Calls of active or inactive are those of the source. No cut-off for these calls is given here.

target: T1, Nuclear factor erythroid 2-related factor 2 (Mus musculus) (UniProt Q60795); assay: Activation of Nrf2 in mouse Heap1c1c7 cells assessed as induction of NAD(P)H:quinone reductase activity at 100 uM relative to control; format: cell-based
T1 sequence (whole entry): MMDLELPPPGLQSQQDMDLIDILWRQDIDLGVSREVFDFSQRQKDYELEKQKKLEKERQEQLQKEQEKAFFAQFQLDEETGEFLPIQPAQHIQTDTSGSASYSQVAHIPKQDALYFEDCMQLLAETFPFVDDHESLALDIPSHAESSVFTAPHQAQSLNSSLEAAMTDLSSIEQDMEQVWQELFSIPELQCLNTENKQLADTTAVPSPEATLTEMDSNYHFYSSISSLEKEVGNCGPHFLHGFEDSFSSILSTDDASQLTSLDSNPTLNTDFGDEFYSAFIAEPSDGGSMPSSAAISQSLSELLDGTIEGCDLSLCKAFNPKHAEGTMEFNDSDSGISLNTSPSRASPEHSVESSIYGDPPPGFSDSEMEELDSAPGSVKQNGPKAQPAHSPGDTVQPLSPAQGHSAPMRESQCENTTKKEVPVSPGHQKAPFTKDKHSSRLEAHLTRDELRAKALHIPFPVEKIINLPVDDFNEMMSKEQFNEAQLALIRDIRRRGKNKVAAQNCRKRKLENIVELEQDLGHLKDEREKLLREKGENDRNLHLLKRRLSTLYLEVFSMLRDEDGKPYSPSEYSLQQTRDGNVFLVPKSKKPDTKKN

First: C/C(=C/Cc1c(O)ccc(C(=O)/C=C/c2ccc(O)cc2)c1O)CO
Second: C/C(=C\Cc1c(O)ccc(C(=O)/C=C/c2ccc(O)cc2)c1O)CO
The fold change (FC) of the first is higher: 1.52 for the first, 1.43 for the second.

First: C/C(=C\Cc1c(O)ccc(C(=O)/C=C/c2ccc(O)cc2O)c1O)CO
Second: CC(C)=CCc1c(O)ccc(C(=O)/C=C/c2ccc(O)cc2O)c1O
The fold change (FC) of the first is higher: 1.61 for the first, 1.34 for the second.

`CC(C)=CCc1c(-c2ccc(O)cc2O)oc2cc(O)cc(O)c2c1=O` and `CC(C)=CCc1c(O)cc2oc3c(c(=O)c2c1O)C(C=C(C)C)Oc1cc(O)ccc1-3` (stereo unspecified) are the same in fold change (FC): 1.31 for the first, 1.31 for the second.

First: CC(C)=CCc1c(O)ccc2c1OC(c1ccc(O)cc1O)CC2=O (stereo unspecified)
Second: O=C1c2c(O)cc(O)cc2OC(c2ccc(O)cc2)C1O (stereo unspecified)
The fold change (FC) of the first is higher: 1.75 for the first, 1.49 for the second.

First: COc1ccc([C@@H]2CC(=O)c3c(cc(OC)c(OC)c3OC)O2)cc1OC
Second: O=C1CC(c2ccc(O)c(O)c2)Oc2cc(O[C@@H]3O[C@H](CO)[C@@H](O)[C@H](O)[C@H]3O)cc(O)c21 (stereo partly specified)
The fold change (FC) of the first is higher: 1.81 for the first, 1.66 for the second.

target: T1, Nuclear factor erythroid 2-related factor 2 (Mus musculus); assay: Activation of Nrf2 in mouse Heap1c1c7 cells assessed as induction of NAD(P)H:quinone reductase activity at 25 uM relative to control; format: cell-based

First: C/C(=C/Cc1c(O)ccc(C(=O)/C=C/c2ccc(O)cc2O)c1O)CC(=O)/C=C/c1ccc(O)cc1
Second: C/C(=C\Cc1c(O)ccc(C(=O)/C=C/c2ccc(O)cc2)c1O)CC(=O)/C=C/c1ccc(O)cc1
The fold change (FC) of the first is lower: 1.39 for the first, 1.57 for the second.

Going from `CC(C)/C=C/c1c(O)cc2oc(-c3ccc(O)cc3O)c(/C=C/C(C)C)c(=O)c2c1O` to `COc1cc(/C=C/C(=O)C/C(C)=C/Cc2c(O)ccc(C(=O)/C=C/c3ccc(O)cc3)c2O)ccc1O`, the fold change (FC) rises from 1.4 to 1.49.

target: T1, Nuclear factor erythroid 2-related factor 2 (Mus musculus); assay: Activation of Nrf2 in mouse Heap1c1c7 cells assessed as induction of NAD(P)H:quinone reductase activity at 50 uM relative to control; format: cell-based

Going from `CC(C)=CCc1c(O)cc2oc(-c3ccc(O)cc3O)c(/C=C/C(C)C)c(=O)c2c1O` to `O=c1c(O)c(-c2ccc(O)cc2)oc2cc(O)cc(O)c12`, the fold change (FC) falls from 1.86 to 1.51.

First: CC(C)=CCc1c(O)ccc(C(=O)/C=C/c2ccc(O)cc2)c1O
Second: O=C1C[C@@H](c2ccc(O)c(O)c2)Oc2cc(O)cc(O)c21
The fold change (FC) of the first is higher: 1.69 for the first, 1.36 for the second.

First: COc1cc([C@@H]2CC(=O)c3c(O)cc(O)cc3O2)ccc1O
Second: O=c1cc(-c2ccc(O)c(-c3c(O)cc(O)c4c(=O)cc(-c5ccc(O)cc5)oc34)c2)oc2cc(O)cc(O)c12
The fold change (FC) of the first is higher: 1.51 for the first, 1.42 for the second.

target: T1, Nuclear factor erythroid 2-related factor 2 (Mus musculus); assay: Activation of Nrf2 in mouse Heap1c1c7 cells assessed as induction of NAD(P)H:quinone reductase activity at 12.5 uM relative to control; format: cell-based

Going from `C/C(=C/Cc1c(O)ccc(C(=O)/C=C/c2ccc(O)cc2)c1O)CC(=O)/C=C/c1ccc(O)cc1` to `COc1cc(/C=C/C(=O)C/C(C)=C\Cc2c(O)ccc(C(=O)/C=C/c3ccc(O)cc3)c2O)ccc1O`, the fold change (FC) rises from 1.31 to 1.46.

In the case of `O=c1c(O)c(-c2ccc(O)c(O)c2)oc2cc(O)cc(O)c12`, the fold change (FC) is reported as 1.36.

target: T2, Nuclear factor erythroid 2-related factor 2 (Homo sapiens) (UniProt Q16236); assay: Activation of Nrf2 in human BEAS2B cells assessed as upregulation of Nrf2 protein expression at 20 uM after 12 hrs by immunoblot analysis; format: cell-based
T2 sequence (whole entry): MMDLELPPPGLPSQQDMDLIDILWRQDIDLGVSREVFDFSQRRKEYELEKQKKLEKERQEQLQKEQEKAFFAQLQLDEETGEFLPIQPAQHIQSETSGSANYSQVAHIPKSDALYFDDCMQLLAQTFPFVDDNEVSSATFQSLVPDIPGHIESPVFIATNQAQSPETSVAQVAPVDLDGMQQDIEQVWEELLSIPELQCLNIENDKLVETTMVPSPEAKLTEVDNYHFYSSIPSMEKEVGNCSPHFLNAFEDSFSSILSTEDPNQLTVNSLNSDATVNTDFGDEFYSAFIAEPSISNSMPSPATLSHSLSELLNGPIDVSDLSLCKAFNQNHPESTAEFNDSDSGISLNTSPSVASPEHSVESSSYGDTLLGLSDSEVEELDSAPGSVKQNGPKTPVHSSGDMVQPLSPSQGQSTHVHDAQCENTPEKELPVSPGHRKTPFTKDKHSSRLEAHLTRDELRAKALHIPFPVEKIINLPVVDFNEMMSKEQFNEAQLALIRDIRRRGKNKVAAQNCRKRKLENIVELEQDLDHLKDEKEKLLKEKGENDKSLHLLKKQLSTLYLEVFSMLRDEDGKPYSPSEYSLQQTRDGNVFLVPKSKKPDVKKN

For `CC(C)(C)c1cc(O)ccc1O`, the Activity was “Active”.

target: T2, Nuclear factor erythroid 2-related factor 2 (Homo sapiens); assay: Activation of Nrf2 in human BEAS2B cells assessed as upregulation of NQO1 protein expression at 20 uM after 12 hrs by immunoblot analysis; format: cell-based

In the case of `CC(C)(C)c1cc(O)ccc1O`, the Activity is reported as “Active”.

target: T2, Nuclear factor erythroid 2-related factor 2 (Homo sapiens); assay: Activation of Nrf2 in human BEAS2B cells assessed as upregulation of gamma-GCS protein expression at 20 uM after 12 hrs by immunoblot analysis; format: cell-based

In the case of `CC(C)(C)c1cc(O)ccc1O`, the Activity is reported as “Active”.
